Reference: PMC5243837, “The Effect of Selective D- or N^α-Methyl Arginine Substitution on the Activity of the Proline-Rich Antimicrobial Peptide, Chex1-Arg20” (Frontiers in Chemistry, 2017)
Where two headings read alike, the source gives them in different places. Where a SMILES comes first, the peptide text is derived from it. [ ]: non-standard residue; d: D form. NMeR = CN[C@@H](CCCNC(=N)N)C(=O)O; Ac6c = NC1(C(=O)O)CCCCC1; Chex = not defined here

How the values were obtained:
K. pneumoniae ATCC 13883 [1] = type: cell-based, Klebsiella pneumoniae; conditions: for Antibacterial activity, MIC: ATCC 13883; for Antibacterial activity against K. pneumoniae (in words): K. pneumoniae ATCC 13883 in MHB, compared with analog 1, Chex1-Arg20
Procedure: An antibacterial assay was undertaken to determine the minimal inhibitory concentration (MIC) as described previously (Li et al., [2015b]). The Gram-negative nosocomial bacterium, K. pneumoniae ATCC13883, was selected for testing the antibacterial activities of the Chex1-Arg20 analogs using 2.5 × 10^5 cells/ml in Mueller Hinton broth (MHB) at 37°C immediately prior to the determination of MIC.
Each Chex1-Arg20 analog was assayed against the nosocomial Gram-negative bacterium K. pneumoniae ATCC 13883. The results are shown in Table 2 in comparison with analog 1, Chex1-Arg20. […] This highlighted the importance of arginine-7 and its native L-configuration for characteristic antimicrobial activity.

[2] = cited from earlier work
K. pneumoniae ATCC 13883 [3] = conditions: previously reported, ref Li et al., 2015b; cited from earlier work
From the text: Table 2 Antibacterial activity, MIC (μM), of Chex1-Arg20 analogs against Gram-negative pathogen K. pneumoniae ATCC 13883. | column: 1^^*

| Compound | Antibacterial activity, MIC (K. pneumoniae ATCC 13883 [1]) [µM] | Antibacterial activity against K. pneumoniae (in words) (K. pneumoniae ATCC 13883 [1]) | Degradation sites in vivo [2] | Antibacterial activity, MIC (K. pneumoniae ATCC 13883 [3]) [µM] |
| --- | --- | --- | --- | --- |
| CC(C)C[C@H](NC(=O)[C@H](Cc1ccc(O)cc1)NC(=O)[C@@H]1CCCN1C(=O)[C@H](N)CCCNC(=N)N)C(=O)N1CCC[C@H]1C(=O)N[C@@H](CCCNC(=N)N)C(=O)N1CCC[C@H]1C(=O)N[C@@H](CCCNC(=N)N)C(=O)N1CCC[C@H]1C(=O)N1CCC[C@H]1C(=O)N[C@@H](CCCNC(=N)N)C(=O)N1CCC[C@H]1C(=O)N[C@H](C(N)=O)C(C)C [analog 4, DR7(7–19)] (H-[dR]PYLPRPRPPRPV-NH2; N-terminus assumed) | >100 | no antibacterial activity |  |  |
| CC(C)C[C@H](NC(=O)[C@H](Cc1ccc(O)cc1)NC(=O)[C@@H]1CCCN1C(=O)[C@H](CCCNC(=N)N)NC(=O)[C@@H]1CCCN1C(=O)[C@H](CCCCN)NC(=O)[C@H](CC(=O)O)NC(=O)[C@@H]1CCCN1C(=O)[C@H](CCCNC(=N)N)NC(=O)C1(N)CCCCC1)C(=O)N1CCC[C@H]1C(=O)N[C@@H](CCCNC(=N)N)C(=O)N1CCC[C@H]1C(=O)N[C@@H](CCCNC(=N)N)C(=O)N1CCC[C@H]1C(=O)N1CCC[C@H]1C(=O)N[C@@H](CCCNC(=N)N)C(=O)N1CCC[C@H]1C(=O)N[C@H](C(=O)N(C)[C@@H](CCCNC(=N)N)C(N)=O)C(C)C [analog 7, mR20] (H-[Ac6c]RPDKPRPYLPRPRPPRPV[NMeR]-NH2; N-terminus assumed) | 14.5 ± 0.1 |  |  |  |
| CC(C)C[C@H](NC(=O)[C@H](Cc1ccc(O)cc1)NC(=O)[C@@H]1CCCN1C(=O)[C@@H](CCCNC(=N)N)NC(=O)[C@@H]1CCCN1C(=O)[C@H](CCCCN)NC(=O)[C@H](CC(=O)O)NC(=O)[C@@H]1CCCN1C(=O)[C@H](CCCNC(=N)N)NC(=O)C1(N)CCCCC1)C(=O)N1CCC[C@H]1C(=O)N[C@@H](CCCNC(=N)N)C(=O)N1CCC[C@H]1C(=O)N[C@@H](CCCNC(=N)N)C(=O)N1CCC[C@H]1C(=O)N1CCC[C@H]1C(=O)N[C@@H](CCCNC(=N)N)C(=O)N1CCC[C@H]1C(=O)N[C@H](C(N)=O)C(C)C [analog 5, Chex1-Val19] (H-[Ac6c]RPDKP[dR]PYLPRPRPPRPV-NH2; N-terminus assumed) | 36.1 ± 0.6 | partially restored activity |  |  |
| A3-APO |  |  | degradation at positions Pro6-Arg7 and Val19-Arg20 |  |
| CC(C)C[C@H](NC(=O)[C@H](Cc1ccc(O)cc1)NC(=O)[C@@H]1CCCN1C(=O)[C@H](CCCNC(=N)N)NC(=O)[C@@H]1CCCN1C(=O)[C@H](CCCCN)NC(=O)[C@H](CC(=O)O)NC(=O)[C@@H]1CCCN1C(=O)[C@H](CCCNC(=N)N)NC(=O)C1(N)CCCCC1)C(=O)N1CCC[C@H]1C(=O)N[C@@H](CCCNC(=N)N)C(=O)N1CCC[C@H]1C(=O)N[C@@H](CCCNC(=N)N)C(=O)N1CCC[C@H]1C(=O)N1CCC[C@H]1C(=O)N[C@@H](CCCNC(=N)N)C(=O)N1CCC[C@H]1C(=O)N[C@H](C(=O)N[C@H](CCCNC(=N)N)C(N)=O)C(C)C [analog 6, DR20] (H-[Ac6c]RPDKPRPYLPRPRPPRPV[dR]-NH2; N-terminus assumed) | 11.8 ± 0.1 |  |  |  |
| Chex1-Arg20 (Chex-RPDKPRPYLPRPRPPRPVR-NH2; reading uncertain) [analog 1, de novo designed proline-rich antimicrobial peptide, Chex-…-NH2] |  |  |  | 0.8 ± 0.1 |
| CC(C)C[C@H](NC(=O)[C@@H]1CCCN1C(=O)[C@H](CCCNC(=N)N)NC(=O)[C@@H]1CCCN1C(=O)[C@H](CCCNC(=N)N)NC(=O)[C@@H]1CCCN1C(=O)[C@@H]1CCCN1C(=O)[C@H](CCCNC(=N)N)NC(=O)[C@@H]1CCCN1C(=O)[C@@H](NC(=O)[C@H](CCCNC(=N)N)NC(=O)C1(N)CCCCC1)C(C)C)C(=O)N[C@@H](Cc1ccc(O)cc1)C(=O)N1CCC[C@H]1C(=O)N[C@@H](CCCNC(=N)N)C(=O)N1CCC[C@H]1C(=O)N[C@@H](CCCCN)C(=O)N[C@@H](CC(=O)O)C(=O)N1CCC[C@H]1C(=O)N[C@@H](CCCNC(=N)N)C(N)=O [analog 8, reverse] (H-[Ac6c]RVPRPPRPRPLYPRPKDPR-NH2; N-terminus assumed) | >100 | no activity |  |  |
| CC(C)C[C@H](NC(=O)[C@H](Cc1ccc(O)cc1)NC(=O)[C@@H]1CCCN1C(=O)[C@@H](CCCNC(=N)N)NC(=O)[C@@H]1CCCN1C(=O)[C@H](CCCCN)NC(=O)[C@H](CC(=O)O)NC(=O)[C@@H]1CCCN1C(=O)[C@H](CCCNC(=N)N)NC(=O)C1(N)CCCCC1)C(=O)N1CCC[C@H]1C(=O)N[C@@H](CCCNC(=N)N)C(=O)N1CCC[C@H]1C(=O)N[C@@H](CCCNC(=N)N)C(=O)N1CCC[C@H]1C(=O)N1CCC[C@H]1C(=O)N[C@@H](CCCNC(=N)N)C(=O)N1CCC[C@H]1C(=O)N[C@H](C(=O)N[C@@H](CCCNC(=N)N)C(N)=O)C(C)C [analog 2, DR7] (H-[Ac6c]RPDKP[dR]PYLPRPRPPRPVR-NH2; N-terminus assumed) | >100 | substantial loss of activity |  |  |
